According to patent US7410663B2, “Oil or fat composition” (Kao Corporation, priority 2002, dated 2008):

Columns and labels:
[1] = Evaluation of gelling properties; format: physicochemical; design: key: A: The mixture lacks fluidity and is gelled.; B: The mixture has low fluidity and is gelled slightly.; C: The mixture has fluidity and is partially gelled.; D: The mixture has fluidity and is not gelled at all; conditions: 70:30 (weight/weight) mixture of oil or fat composition and water, visually observed
Source text: Gelling properties of a 70:30 (weight/weight) mixture of each oil or fat composition and water were visually observed and evaluated based on the below-described criteria. The results are shown in Table 1. • A: The mixture lacks fluidity and is gelled. • B: The mixture has low fluidity and is gelled slightly. • C: The mixture has fluidity and is partially gelled. • D: The mixture has fluidity and is not gelled at all.

[2] = Evaluation of rancid odor (organoleptic); format: physicochemical; design: key: A: The sample is almost free from a rancid odor and the odor does not cause discomfort.; B: The sample emits a little rancid odor, but the odor causes little discomfort.; C: The sample emits a rancid odor and the odor causes discomfort.; D: The sample emits a severe rancid odor and the odor causes extreme discomfort; conditions: oil or fat composition:water=70:30, room temperature for 1 week, smelled
Protocol: Each sample (each oil or fat composition:water=70:30) prepared in Example 3 was allowed to stand at room temperature for 1 week. The sample was smelled and organoleptic evaluation of rancid odor was performed based on the below-described criteria.

PPARγ = biological target: T1, PPARγ (Homo sapiens, UniProt P37231); assay: Test on PPARγ activation (GAL4-PPARγ-LBD luciferase reporter in IEC-6 cells); format: cell-based; conditions: control set at 100, test substance 500 μM, 24 hours
T1 construct: expressed in transfected cells; host or cells: IEC-6 small intestine epithelial cell line
T1 sequence (P37231 238-503 limits assumed): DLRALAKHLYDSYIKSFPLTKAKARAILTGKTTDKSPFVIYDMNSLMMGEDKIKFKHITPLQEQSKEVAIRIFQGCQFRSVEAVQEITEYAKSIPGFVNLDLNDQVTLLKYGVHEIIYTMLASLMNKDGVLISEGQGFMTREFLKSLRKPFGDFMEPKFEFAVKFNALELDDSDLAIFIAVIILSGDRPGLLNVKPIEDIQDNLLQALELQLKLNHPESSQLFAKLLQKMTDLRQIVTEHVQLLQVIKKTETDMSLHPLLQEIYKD
Protocol: The small intestine epithelial cell line IEC-6 was inoculated on a 12 well plate and cultured in DMEM (5% FCS) for 24 hours. A plasmid (pGAL4-PPARγ-LBD) expressing the chimeric molecules of a GAL4-DNA binding domain (DBD) and a PPARγ ligand binding domain (LBD) and a reporter plasmid (pREP) containing a GAL4 binding sequence upstream of a firefly luciferase gene were introduced simultaneously by using a transfection reagent (“QIAGEN”; Superfect transfection reagent), each in an amount of 0.5 μg/well. In order to monitor the transfection efficiency, a renilla luciferase gene was incorporated in the pGAL4-PPARγ-LBD at the same time. The culture broth was then replaced with a DMEM (+250 μM BSA) medium containing a test substance (500 μM), followed by incubation for further 24 hours. After washing with PBS, the cells were lysed using dual luciferase assay system (product of Promega Corporation). To the resulting lysate was added a substrate solution containing luciferin, and firefly and renilla luciferase activities were measured by a luminometer. In the above-described manner, the PPARγ activating capacity was evaluated by measuring the transcriptional activity (luciferase activity) of the PPARγ-dependent gene. It is to be noted that the PPARγ-dependent gene transcriptional activity (luciferase activity) was defined as described below. […]

| SMILES | Gelling properties [1] | Rancid odor [2] | PPARγ (PPARγ-dependent transcriptional activity, luciferase, relative to control) (PPARγ) |
| --- | --- | --- | --- |
| CC/C=C\C/C=C\C/C=C\C/C=C\C/C=C\C/C=C\CCC(=O)O [Oil or Fat Composition 8, Docosahexaenoic acid] | D | D | 508 |
| CC/C=C\C/C=C\C/C=C\C/C=C\C/C=C\CCCC(=O)O [Oil or Fat Composition 7, Eicosapentaenoic acid] | D | D | 480 |
